Data set [1] concerns NIS expressing organs (thyroid and stomach) and BXPC-3-hNIS tumor. Briefly: SPECT/CT dual isotope imaging of nude mice with BXPC-3-hNIS tumors. Conditions: four hours after i.p. 250 μCi of each isotope. As for the experimental part: FIG. 6. SPECT/CT dual isotope imaging of nude mice implanted with SQ BXPX-3-hNIS tumors. Animals were injected i.p with 250 μCi ^125I and 250 μCi ^99mTc and imaged four hours later. Images were processed using Vivo Quant software. The scale was adjusted manually to get minimal yellow in the tissues.
The stomach and thyroid signals were subtract from the SPECT dataset (FIG. 5). In this experiment, nude female mice (5-week of age) were injected with 3×10^6 BXPC-3-hNIS cells. When tumors reached a diameter of 1 cm, mice were injected I.P. with ^125I sodium iodide (250 μCi) and/or ^99mTc-pertechneate (250 μCi). Four hours post isotope administration, SPECT/CT data were acquired with U-SPECT-II (MiLabs). The SPECT emission data were collected in dual-energy windows to separate the gamma emision energy counts from ^99mTc (140 keV) and ^125I (35 keV). […] Radioiodide thyroid signal subtraction was performed by normalizing the ^125I SPECT data to thyroid tissue on the ^99mTc SPECT data using the image arithmetic tools available in PMOD image fusion software. This was performed in three steps by (1) calculating the normalization factor (i.e., the inverse ratio between the maximum voxel value corresponding to the thyroid tissue on the ^125I SPECT and the maximum voxel value corresponding to the thyroid tissue on the ^99mTc SPECT data set), (2) multiplying each voxel in the ^125I SPECT dataset by this normalization factor, and (3) subtracting the normalized ^125I SPECT dataset from ^99mTc SPECT data set to generate a thyroid subtraction SPECT dataset (FIG. 5C). Similarly, ^99mTc stomach signal subtraction was performed by (1) calculating the normalization factor which in this case is the inverse ratio of the maximum voxel value corresponding to the stomach tissue on the ^99mTc SPECT to the maximum voxel value corresponding to the stomach tissue in the ^125I SPECT data set, (2) multiplying each voxel in the ^99mTc SPECT dataset by this normalization factor, and (3) subtracting the normalized ^99mTc SPECT dataset from ^125I SPECT data set to generate a stomach subtraction SPECT dataset (FIG. 5B).

Data set [2] concerns NIS polypeptide-mediated uptake in stomach. Briefly: NIS imaging of a mouse fed oral CT contrast agent by gavage. Format: in vivo. Conditions: mouse with NIS transduced liver, then imaged.
Text: In the following example, ingestion of barium sulfate was used to enable and enhance discrimination of NIS expression in the liver.
Data set [3] has as its system Mel624 cells. Briefly: radiotracer uptake assay in Mel624 cells stably expressing NIS polypeptides. Format: cell-based, human. Conditions: Mel624 cells stably expressing the NIS polypeptide; 37° C. for 1 hour; +/−300 μM KClO4; gamma counter. The procedure:
Mel624 cells stably expressing a wild-type human NIS polypeptide (Mel-NIS) or one of two mutant NIS polypeptides (Mel-NIS-93E or Mel-NIS-93Q) were plated in 96-well plates at a density that would lead them to confluency on the day of the uptake assay. 1× Hank's balanced salt solution with calcium, magnesium (HBSS) (Cellgro) and 1 mM HEPES was adjusted to pH 7.3 using KOH (HBBS-HEPES) on the day of the assay. Culture medium was removed from the cells, and 150 μL of HBSS-HEPES+/−300 μM KClO4 was added to the wells. The cells were incubated for 10 minutes at room temperature prior to the addition of radiotracer. Radiotracers, ^125I and ^99mTc, were diluted in HBSS-HEPES to about 70,000 to 100,000 CPM/25 μL (CPM, counts per minute). 25 μL of radiotracer was added to the cells in HBSS-HEPES+/−KClO4, and the cells were incubated at 37° C. for 1 hour. The cells were then washed twice with cold HBSS-HEPES buffer and lysed to release the intracellular radiotracer by adding 200 μL 1M NaOH. Lysates were transferred to strip tubes and quantified using a gamma counter.

“Also recorded” adds a separate entry of the source.

Consider `[O]=[99Tc](=[O])(=[O])[O-]` [^99mTc, ^99mTc-pertechneate], for which, in data set [1], the accumulation in stomach result is “preferentially accumulates” and the “accumulation in tumor (BXPC-3-hNIS)” value is recorded as “does not discriminate between the two isotopes; also recorded: accumulate both isotopes to similar concentrations”.

Take `[125I-].[Na+]` [^125I, ^125I sodium iodide]: in data set [1], the accumulation in thyroid result is on record as “preferentially accumulates” and the “accumulation in tumor (BXPC-3-hNIS)” value is recorded as “does not discriminate between the two isotopes; also recorded: accumulate both isotopes to similar concentrations”.

Consider `O=S(=O)([O-])[O-].[Ba+2]` [barium sulfate], for which the “isotope signals from the stomach” value is “reduced isotope signals from the stomach” in data set [2] and “significant reduction of the stomach signal” in data set [2] (listed as oral contrast agent).

B1: wild-type human NIS polypeptide: wild-type human sodium iodide symporter polypeptide (protein, UniProt Q92911 1-643, looked up)
Sodium/iodide cotransporter: MEAVETGERPTFGAWDYGVFALMLLVSTGIGLWVGLARGGQRSAEDFFTGGRRLAALPVGLSLSASFMSAVQVLGVPSEAYRYGLKFLWMCLGQLLNSVLTALLFMPVFYRLGLTSTYEYLEMRFSRAVRLCGTLQYIVATMLYTGIVIYAPALILNQVTGLDIWASLLSTGIICTFYTAVGGMKAVVWTDVFQVVVMLSGFWVVLARGVMLVGGPRQVLTLAQNHSRINLMDFNPDPRSRYTFWTFVVGGTLVWLSMYGVNQAQVQRYVACRTEKQAKLALLINQVGLFLIVSSAACCGIVMFVFYTDCDPLLLGRISAPDQYMPLLVLDIFEDLPGVPGLFLACAYSGTLSTASTSINAMAAVTVEDLIKPRLRSLAPRKLVIISKGLSLIYGSACLTVAALSSLLGGGVLQGSFTVMGVISGPLLGAFILGMFLPACNTPGVLAGLGAGLALSLWVALGATLYPPSEQTMRVLPSSAARCVALSVNASGLLDPALLPANDSSRAPSSGMDASRPALADSFYAISYLYYGALGTLTTVLCGALISCLTGPTKRSTLAPGLLWWDLARQTASVAPKEEVAILDDNLVKGPEELPTGNKKPPGFLPTNEDRLFFLGQKELEGAGSWTPCVGHDGGRDQQETNL
Regarding B1, in data set [3], the “uptake of pertechnetate (Technetium-99m)” value is listed as “Substantial uptake” and the “uptake of radioiodide (Iodine-125)” value is given as “Substantial uptake”.
